Our source for the Proliferation index and AP activity index values is patent publication US8168236B2, “Extracts of Polygonum multiflorum thunb., and preparation process and uses of the same” (National Yang-Ming University, priority 2003, dated 2012).

Assay [1] relates to EGF-stimulated bone marrow cells. The experiment in a line: MTT assay, proliferation of EGF-stimulated bone marrow cells. The format is cell-based, mouse. The conditions noted are these: positive control, 50 ng/ml EGF. The method, then: Under sterile condition, C57BL/6j (male, 15-20 g, 4-6 weeks old) were sacrificed, and their femoral bones were injected with DMEM/F12 culture medium (Gibco, N.Y. USA) so as to flush out the bone marrow cells. The collected cells in DMEM/F12 culture medium were then filtered through a sterile No. 53 nylon mesh so as to obtain a single cell suspension, the cell concentration of which was subsequently adjusted to 6×10^5 cells/ml with DMEM/F12 culture medium containing N2 supplement (Sigma, Mo., USA).
The mouse bone marrow cells (1.5×10^5 nucleated cells/well) as prepared in the above Procedure (I) were placed into 96-well culture plates and incubated in 200 μl of a defined medium (DMEM/F12 plus N2 supplement) supplemented with EGF (at a final concentration of 10 ng/ml). After incubation at 37° C. for 24 hrs, different concentrations (0.01 μg/ml, […], 1 μg/ml, 10 μg/ml and 100 μg/ml) of the extracts of Polygonum multiflorum Thunb. root obtained in Example 1 were added into the wells of the culture plates, respectively. […]
Subsequently, MTT assay was performed. […] The culture plates were allowed to stand for 14 hours and then subjected to absorbance detection using a microplate reader at O.D. 550 nm-O.D. 690 nm. […] The obtained experimental data were analyzed by Student's t-test.
On the technique in general: Tetrazolium assays rely on reduction of a dye to a coloured formazan, in cell work by metabolically active cells.

In assay [2] the test system is dexamethasone-stimulated mouse primary bone marrow cell cultures. The experiment in a line: Alkaline phosphatase colorimetry, dexamethasone-stimulated osteogenic cell maturation (test A). It is filed as cell-based. The following applies: positive control, 0.1 nM estrogen. On the procedure:
Under sterile condition, C57BL/6j (male, 15-20 g, 4-6 weeks old) were sacrificed, and their femoral bones were injected with alpha-minimal essential medium (α-MEM) culture medium (Gibco, N.Y., USA) so as to flush out the bone marrow cells. The collected cells in α-MEM culture medium were then filtered through a sterile No. 53 nylon mesh so as to obtain a single cell suspension.
The mouse bone marrow cells (1.5×10^5 nucleated cells/well) as prepared in the above Procedure (I) were placed into 96-well culture plates and incubated in α-MEM supplemented with 15% FCS, 10 μM dexamethazone, 50 μg/ml ascorbic acid, and 10 mM sodium, β-glycerophosphate. After incubation at 37° C. for 48 hrs, extracts of Polygonum multiflorum Thunb. root with different concentrations (0.01 μg/ml, 0.1 μg/ml, 1 μg/ml, 10 μg/ml, 100 μg/ml and 1000 μg/ml) were added into the wells of the culture plates, respectively. […]
The alkaline phosphatase (AP) colorimetry (Aubin, J. E. et al. (1995), Bone, 17: 77S-83S; Sabokbar, A. et al. (1994), Bone & Mineral, 27: 57-67) was conducted as follows: The culture medium in each well of the culture plates was removed, and the remaining cells were added with 120 μl of 0.01% SDS and incubated in a 37° C. incubator for 10 minutes. […] After a reaction time of 10-15 minutes at 37° C., the culture plates were subjected to absorbance detection at O.D. 405 nm.

The test system of assay [3] is mGM-CSF-stimulated mouse primary bone marrow cultures. The experiment in a line: MTT assay, mGM-CSF-stimulated proliferation of bone marrow cultures. The conditions noted are these: positive control, mGM-CSF 20 ng/ml. It is filed as cell-based. On the procedure: Subsequently, MTT assay was performed. Each well of the culture plates was added with a MTT solution (5 mg/ml dissolved in 1×PBS) to a final concentration of 1 mg/ml. Four hours later, each well of the culture plates was added with a MTT lysis buffer (20% sodium dodecyl sulfate (SDS) in 50% dimethylformamide (DMF)/50% H2O) in an amount of 150 μl/well. The culture plates were allowed to stand for 14 hours and then subjected to absorbance detection using a microplate reader at O.D. 550 nm-O.D. 690 nm. Each experiment was conducted in duplicate, and n=6 wells for each group. The obtained experimental data were analyzed by Student's t-test.
The mouse bone marrow cells (1.5×10^5 nucleated cells/well) prepared according to the procedures set forth in Procedure (I) of Example 5 were placed into 96-well culture plates and incubated in RPMI supplemented with 5% FCS and mGM-CSF (at a final concentration of 2 ng/ml). After incubation at 37° C. for 24 hrs, extracts of the Polygonum multiflorum Thunb. root with different concentrations (0.1 μg/ml, 1 μg/ml, 10 μg/ml and 100 μg/ml) were added into the wells of the culture plates, respectively. The positive control group was treated with 20 ng/ml mGM-CSF, and the negative control group was treated with 2 ng/ml mGM-CSF. […]

“EGF: epidermal growth factor, 50 ng/ml positive control”: the Proliferation index in assay [1] is 1.26 (±0.13).

estrogen came in with an AP activity index in assay [2] of 1.28.

B1: mGM-CSF: granulocyte-monocyte colony stimulating factor, 20 ng/ml positive control (protein, UniProt P01587 18-141, looked up)
Granulocyte-macrophage …: APTRSPITVTRPWKHVEAIKEALNLLDDMPVTLNEEVEVVSNEFSFKKLTCVQTRLKIFEQGLRGNFTKLKGALNMTASYYQTYCPPTPETDCETQVTTYADFIDSLKTFLTDIPFECKKPGQK
In assay [3], B1 yielded a Proliferation index of 2.05.
